Laboratory results as given in US5138035A, “Cyclopeptide derivatives usable as selective inhibitors with respect to proteases with active serine” (Centre National de la Recherche Scientifique, priority 1988, dated 1992).
*1 amine or outer side, *2 acyl side, *3 side chain or, on linkers, in order; H or OH if unused. Where a SMILES comes first, the peptide text is derived from it. [ ]: non-standard residue; d: D form. X3 = O=C(c1cc(N[*:1])ccc1CBr)[*:2]

Experiments:
Format in all cases: biochemical
[1] = target: T1, bovine trypsin (Bos taurus, UniProt P00760); experiment: Inactivation of bovine trypsin (Hart and O'Brien / Kitz and Wilson kinetic methods); conditions: 25° C., 0.1M Tris, 0.01M CaCl2, pH 7.2 (Example 14), method a (Hart and O'Brien) or b (Kitz and Wilson)
T1 sequence (P00760 24-246): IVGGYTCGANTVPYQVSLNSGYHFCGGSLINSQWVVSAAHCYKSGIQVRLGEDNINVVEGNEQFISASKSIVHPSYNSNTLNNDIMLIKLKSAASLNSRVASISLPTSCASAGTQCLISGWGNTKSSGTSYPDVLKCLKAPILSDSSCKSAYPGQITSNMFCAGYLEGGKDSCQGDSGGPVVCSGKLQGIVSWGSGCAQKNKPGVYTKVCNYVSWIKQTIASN
Text: (§1) The properties of the cyclopeptide derivative of formula (XVI) are checked and in particular its capacity to inactivate bovine trypsin or human urokinase using the methods of Kitz and Wilson (for trypsin and urokinase) and the method of Hart and O'Brien (for trypsin), 1973, published in Biochemistry, 12, pp. 2940-2945.
(§2) The properties of the cyclopeptide derivative of formula (XXIII) are checked and in particular its capacity to inactivate bovine trypsin or human urokinase using the same methods as in Example 2 and working at 25° C. with the 0.025M sodium phosphate buffer, 0.1M NaCl, 0.05% (v/v) Tween 80 and at pH 7.5 for human urokinase.
(§3) The kinetic measurements were carried out at 25° C. in the following buffers: 0.1M Tris, 0.01M CaCl2, pH 7.2 (bovine trypsin); 0.025M sodium phosphate, 0.1M NaCl, 0.05% (v/v) Tween 80, pH 7.5 (human urokinase); 0.05M Tris, 0.038M NaCl, 0.01% (v/v) Tween 80, pH 8.3 (human t-PA), 0.1M Tris (porcine pancreatic elastase), 0.1M sodium phosphate, 25% (v/v) glycerol (human plasmin). […]

[2] = target: human urokinase (Homo sapiens, UniProt P00749); experiment: Inactivation of human urokinase (Kitz and Wilson / Hart and O'Brien kinetic methods); conditions: 25° C., 0.025M sodium phosphate, 0.1M NaCl, 0.05% (v/v) Tween 80, pH 7.5, method a and/or b
Text: as §1, §2, §3

[3] = target: human t-PA (Homo sapiens, UniProt P00750); experiment: Inactivation of human t-PA; conditions: 25° C., 0.05M Tris, 0.038M NaCl, 0.01% (v/v) Tween 80, pH 8.3, method b
human t-PA, sequence (P00750 36-562): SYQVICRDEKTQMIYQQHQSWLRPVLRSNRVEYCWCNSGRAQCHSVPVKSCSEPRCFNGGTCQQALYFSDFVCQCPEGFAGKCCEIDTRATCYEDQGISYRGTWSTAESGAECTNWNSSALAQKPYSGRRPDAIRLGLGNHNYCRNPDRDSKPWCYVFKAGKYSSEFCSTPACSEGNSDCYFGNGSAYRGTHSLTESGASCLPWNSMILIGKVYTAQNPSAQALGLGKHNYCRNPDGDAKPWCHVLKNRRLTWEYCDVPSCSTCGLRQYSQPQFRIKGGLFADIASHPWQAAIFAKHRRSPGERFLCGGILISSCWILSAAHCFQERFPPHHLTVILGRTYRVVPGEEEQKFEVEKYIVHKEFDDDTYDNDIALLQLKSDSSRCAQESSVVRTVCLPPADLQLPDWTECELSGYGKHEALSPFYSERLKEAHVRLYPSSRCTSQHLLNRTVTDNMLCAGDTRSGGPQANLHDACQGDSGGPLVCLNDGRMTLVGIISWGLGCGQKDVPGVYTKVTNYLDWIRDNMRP
Experimental: The inactivating or inhibiting properties of this derivative with respect to human t-PA are checked at 25° C. in a 0.05M Tris buffer, 0.038M NaCl, 0.01% (v/v) Tween 80 and pH 8.3.

[4] = target: elastase (Sus scrofa, UniProt P00772); experiment: Action on elastase (Examples 2 and 4); conditions: species not given
elastase, sequence (P00772 27-266): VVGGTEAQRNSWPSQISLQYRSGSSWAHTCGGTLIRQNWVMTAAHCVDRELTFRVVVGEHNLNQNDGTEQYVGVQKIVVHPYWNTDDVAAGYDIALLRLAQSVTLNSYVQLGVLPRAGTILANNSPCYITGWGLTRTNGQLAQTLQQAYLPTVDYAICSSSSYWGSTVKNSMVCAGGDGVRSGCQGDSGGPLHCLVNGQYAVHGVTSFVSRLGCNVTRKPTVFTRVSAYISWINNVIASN

apparent inactivation constant ki/Ki [1]: 150 M⁻¹ s⁻¹
apparent inactivation constant ki/Ki [2]: 165 M⁻¹ s⁻¹
apparent inactivation constant ki/Ki [3]: 0.3 M⁻¹ s⁻¹
action on elastase [4]: no action
Compound: N=C(N)NCCC[C@@H]1NC(=O)CNC(=O)CNC(=O)CNC(=O)CNC(=O)c2cc(ccc2CBr)NC1=O [Compound (XXIII)] (cyclo(GGGGR[X3]))
